“Also recorded” adds a separate entry of the source.

The test relates to peripheral blood mononuclear cells (PBMC). The test is described as follows: PBMC cell proliferation analysis (BrdU, cytofluorimetry). The conditions noted are these: PBMC proliferative response vs absence of stimulation (baseline); cut-off P.I. 2. It counts as cell-based, human. As to the method: Next, peripheral blood mononuclear cells were separated. The peripheral blood mononuclear cells (PBMC) were separated by density gradient centrifugation. For this aim, 20 ml of “buffy coat” of healthy donors from the immune-transfusion Service of Ospedale di Borgomanero (Italy) were used for each experiment, thus obtaining an average yield of 200×10^6 PBMC/buffy. The amount of separated cells was determined by cell count in Burker's chambers, using Turk's dye, which allows to discriminating between mononuclear and polymorphonuclear cells. […]
Then, the cell proliferation analysis was performed. Cell proliferation was assessed with a cytofluorimetric technique by using the bromodeoxyuridine (BrdU) nuclear labeling protocol. […] Following to 16-hour incubation at 37° C. under humidified atmosphere, 5% CO2, the cell proliferation was analyzed by a cytofluorirnetric technique. […] The cells were analyzed within 24 hours from their preparation by using a cytofluorimeter FACScalibur from Becton Dikinson Company and the analysis program CellQuest.
Results were expressed as cell proliferation index (P.I.), being calculated as ratio of the percentage of proliferating cells in the presence of stimulus and the percentage of the same in the absence of stimulation, A P.I. value greater than 2 was considered acceptable (cut-off value). […]

For the substance Phytohaemagglutinin [PHA], the “cell proliferation index (P.I.)” value is listed as “significantly higher; also recorded: greater than the cut-off value”.

Source of the values: patent publication US10413576B2, “Therapy for use in the treatment of tumors, acquired immunodeficiency syndrome and leukemias by dual immune biostimulation” (priority 2014, dated 2019).
